From patent US20230150951A1, “2,5- OR 2,6-DISUBSTITUTED HYDROQUINONE DERIVATIVES WITH AT LEAST ONE CARBOXY, SULFO OR AMIDO GROUP USEFUL AS MEDICAMENTS” (OM PHARMA SA, priority 2020, published 2023)
≈ marks a conversion by molar mass, not a printed value.

Columns and labels:
physchem = details: water
Renca tumor cells = assay: Subcutaneous kidney cancer syngenic model (Renca); format: in vivo, BALB/c mice; design: concentration or dose not given beside the values
Excerpt: (§1) The objective of this study was to evaluate preclinically the in vivo therapeutic efficacy study of compounds according to the present invention for the treatment of subcutaneously murine pancreatic cancer syngenic model (Pan02) in female C57BL/6 mice and kidney cancer syngenic model (Renca) in female BALB/c mice.
The cells in exponential growth phase were harvested and quantitated by cell counter before tumor inoculation.
Tumor Inoculation for Renca model: each mouse was inoculated subcutaneously in the right rear flank region with Renca tumor cells (1×10^6) in 0.1 mL of PBS for tumor development.
(§2) Randomization: The randomization was started when the mean tumor size reaches approximately 100 (80-110) mm^3. For both models, 48 mice were enrolled in the study. All animals were randomly allocated to 6 study groups. Randomization were performed based on “Matched distribution” method using the multi-task method (StudyDirector™ software, version 3.1.399.19). The date of randomization was denoted as day 0.
(§3) Observation and Data Collection: After tumor cells inoculation, the animals were checked daily for morbidity and mortality. During routine monitoring, the animals were checked for any effects of tumor growth and treatments on behavior such as mobility, food and water consumption, body weight gain/loss (body weights were measured twice per week after randomization), eye/hair matting and any other abnormalities. Mortality and observed clinical signs were recorded for individual animals in detail.
(§4) Tumor volumes were measured twice per week after randomization in two dimensions using a caliper, and the volume were expressed in mm3 using the formula: “V=(L×W×W)/2, where V is tumor volume, L is tumor length (the longest tumor dimension) and W is tumor width (the longest tumor dimension perpendicular to L). Tumor weight were measured at the end of study. Dosing as well as tumor and body weight measurements were conducted in a Laminar Flow Cabinet.
(§5) Statistical Analysis: To compare tumor volumes of different groups at a pre-specified day, Bartlett's test was firstly used to check the assumption of homogeneity of variance across all groups. When the p-value of Bartlett's test is >0.05, One-way ANOVA were used to test overall equality of means across all groups.
(§6) If the p-value of the One-way ANOVA is <0.05, post hoc testing by running Tukey's HSD (honest significant difference) tests for all pairwise comparisons, and Dunnett's tests for comparing each treatment group with the vehicle group were performed. When the p-value of Bartlett's test is <0.05, Kruskal-Wallis test were used to test overall equality of medians among all groups. If the p-value the Kruskal-Wallis test is <0.05, post hoc testing by running Conover's non-parametric test for all pairwise comparisons or for comparing each treatment group with the vehicle group were performed, both with single-step p-value adjustment. All statistical analyses were done in R-a language and environment for statistical computing and graphics (version 3.3.1). All tests are two-sided unless otherwise specified, and p-values of <0.05 are regarded as statistically significant.

Pan02 tumor cells = assay: Subcutaneous murine pancreatic cancer syngenic model (Pan02); format: in vivo, C57BL/6 mice; design: Mean % inhibition of tumor volume Pan02 model: concentration or dose not given beside the values
Procedure: as §1
Cell Culture: the Pan02 tumor cells were maintained in vitro with RPMI 1640 medium supplemented with 10% fetal bovine serum at 37° C. in an atmosphere of 5% CO2 in air. The cells in exponential growth phase were harvested and quantitated by cell counter before tumor inoculation.
Tumor Inoculation for Pan02 model: each mouse was inoculated subcutaneously in the right front flank region with Pan02 tumor cells (3×10^6) in 0.1 mL of PBS for tumor development.
as §2, §3, §4, §5, §6

[1] = system: bleomycin induced pulmonary fibrosis; assay: Bleomycin induced pulmonary fibrosis, 21 days; format: in vivo, mice; details: day 21; pirfenidone 100 mg/kg, IVc-059a 15 mg/kg
Procedure: A total of 40 male Balb/c mice aged 8-10 weeks were used for the study.
Mice were anesthetized using an IP injection of xylazine and ketamine. Once an appropriate plane of anaesthesia was achieved, animals had 1.0 U/kg bleomycin sulphate instilled via intratracheal route. The total volume of liquid was 50 μL.
Dosing of IV and positive control (pirfenidone) started 24 hours after bleomycin instillation.
Drug solution was formulated immediately prior to dosing. For a dose of 15 mg/kg (enough for 12, 30 g mice) 4.5 mg of compound was weighed out. 75 μl (5%) DMSO added and mixed until drug is in solution. 150 μl (10%) solutol added and vortexed gently, 150 μl (10%) PEG400 added and vortexed gently. 1000 μl PBS (pH7) was added and matrix was measured to ensure pH 7.0 was maintained. Remaining PBS (to a total of 1500 μl) was added. Compound remained in solution. […]
Ashcroft score: Lungs from each animal were FFPE, sectioned and stained with H&E according to an in-house protocol. […] Each lung was scored using the Ashcroft grading system to measure degree of inflammation/fibrosis as per Hubner et al., 2008. […]
An entire lung from each animal was formalin fixed and stored in 70% ethanol. […] Percent area covered by trichrome staining was quantified using Qupath and ImageJ software.

[2] = day 13, 15 mg/kg, 5 μL/g, I.V., QD*5 for 2 weeks

O=C(O)c1cc(NC(=O)c2cc(O)cc(C(=O)Nc3ccc(O)c(C(=O)O)c3)c2O)ccc1O [IIc-007a, 5-(3-(3-carboxy-4-hydroxyphenylaminocarbonyl)-2,5-dihydroxybenzamido)-2-hydroxy benzoic acid]
solubility (physchem): 1800 µg/mL (≈ 3.84 mM)

O=C(O)c1cc(O)cc(CS(=O)(=O)Cc2cc(O)cc(C(=O)O)c2O)c1O [IVc-059a, 3-((2,5-Dihydroxy-3-carboxyphenyl)methylsulfonylmethyl)-2,5-dihydroxybenzoic acid]
Mean % inhibition of tumor volume Renca model (Renca tumor cells; Day 0): 0.05%
Mean % inhibition of tumor volume Renca model (Renca tumor cells; Day 3): −0.90%
Mean % inhibition of tumor volume Renca model (Renca tumor cells; Day 6): 5.02%
Mean % inhibition of tumor volume Renca model (Renca tumor cells; Day 9): 14.83%
Mean % inhibition of tumor volume Renca model (Renca tumor cells; Day 13): 23.07%
Mean % inhibition of tumor volume Renca model (Renca tumor cells; Day 16): 19.42%
Tumor growth (in words) (Pan02 tumor cells; 15 mg/kg I.V.): significantly suppressed tumor growth
TGI value (Pan02 tumor cells; 15 mg/kg I.V., P<0.05): 20.98%
Mean % inhibition of tumor volume Pan02 model (Pan02 tumor cells; Day 0): −0.11%
Mean % inhibition of tumor volume Pan02 model (Pan02 tumor cells; Day 3): 19.86%
Mean % inhibition of tumor volume Pan02 model (Pan02 tumor cells; Day 6): 18.64%
Mean % inhibition of tumor volume Pan02 model (Pan02 tumor cells; Day 9): 18.49%
Mean % inhibition of tumor volume Pan02 model (Pan02 tumor cells; Day 13): 20.98%
TGI (%) (Pan02 tumor cells; [2]): 20.98%
Tumor volume ± SEM (mm^3) (Pan02 tumor cells; [2]): 148.49 ± 7.05 (8) mm^3
Onset of fibrosis in mouse lung (Ashcroft score) [1]: reduced the onset of fibrosis in mouse lung
